Measurements: patent US9476099B2 (TRUSTEES OF DARTMOUTH COLLEGE, priority 2012, dated 2016)
Several values for one entry are separate records, joined by “and”; a condition that tells them apart may be missing. Equal values may be shown once.

Test system: NT2/D1-R1 control and DNMT3B knockdown cells
Test: Genome-wide expression analysis with PAM clusters, control and DNMT3B knockdown cells (Tables 8-14)
Conditions: sh-3B + aza
[1] = NT2/D1-R1 DNMT3B knockdown, decitabine 10 nM 3 days

Structure (SMILES): Nc1ncn([C@H]2C[C@H](O)[C@@H](CO)O2)c(=O)n1 [aza]
- LOC644422 XR_019449 expression Mean (10 nM decitabine, 3 days): 223.185
- LOC647954 XR_018676 expression Mean (10 nM decitabine, 3 days): 1052.7
- LOC728715 XM_0011282 expression Mean (10 nM decitabine, 3 days): 877.255
- M6PRBP1 NM_005817 expression Mean (10 nM decitabine, 3 days): 907.761
- MBNL3 NM_133486 expression Mean (10 nM decitabine, 3 days): 272.09
- MCM4 NM_005914 expression Mean (10 nM decitabine, 3 days): 2040.37
- MEPCE NM_019606 expression Mean (10 nM decitabine, 3 days): 354.1
- METTL1 NM_005371 expression Mean (10 nM decitabine, 3 days): 266.779
- MORF4L2 NM_012286 expression Mean (10 nM decitabine, 3 days): 2564.56
- MRTO4 NM_016183 expression Mean (10 nM decitabine, 3 days): 654.553
- MT1E NM_175617 expression Mean (10 nM decitabine, 3 days): 1985.42
- MTA2 NM_004739 expression Mean (10 nM decitabine, 3 days): 325.004
- MYOF NM_013451 expression Mean (10 nM decitabine, 3 days): 177.015
- MYOF NM_133337 expression Mean (10 nM decitabine, 3 days): 293.772
- NACC2 NM_144653 expression Mean (10 nM decitabine, 3 days): 245.995
- NAT5 NM_181528 expression Mean (10 nM decitabine, 3 days): 1059.57
- NBPF10 NM_0010376 expression Mean (10 nM decitabine, 3 days): 370.658
- NBPF10 NM_0010397 expression Mean (10 nM decitabine, 3 days): 345.645
- NEFH NM_021076 expression Mean (10 nM decitabine, 3 days): 407.674
- NFE2 NM_006163 expression Mean (10 nM decitabine, 3 days): 245.362
- NM_002467 expression Mean (10 nM decitabine, 3 days): 595.692
- NM_0010397 expression Mean (10 nM decitabine, 3 days): 405.052
- NM_138781 expression Mean (10 nM decitabine, 3 days): 305.526
- NODAL NM_018055 expression Mean (10 nM decitabine, 3 days): 1549.19
- NOP2 NM_0010337 expression Mean (10 nM decitabine, 3 days): 5354.42
- NOP56 NM_006392 expression Mean (10 nM decitabine, 3 days): 2368.5
- NP NM_000270 expression Mean (10 nM decitabine, 3 days): 340.821
- NR_002773 expression Mean (10 nM decitabine, 3 days): 394.199
- NR_003287 expression Mean (10 nM decitabine, 3 days): 182.319
- NTF3 NM_002527 expression Mean (10 nM decitabine, 3 days): 184.819
- NTS NM_006183 expression Mean (10 nM decitabine, 3 days): 457.501
- NUAK2 NM_030952 expression Mean (10 nM decitabine, 3 days): 225.181 and 195.684
- OAT NM_000274 expression Mean (10 nM decitabine, 3 days): 2711.86
- ODC1 NM_002539 expression Mean (10 nM decitabine, 3 days): 2404.47
- PAK1IP1 NM_017906 expression Mean (10 nM decitabine, 3 days): 603.531
- PEA15 NM_003768 expression Mean (10 nM decitabine, 3 days): 969.289
- PEG3 NM_006210 expression Mean (10 nM decitabine, 3 days): 256.384
- PITX1 NM_002653 expression Mean (10 nM decitabine, 3 days): 267.398
- PLAU NM_002658 expression Mean (10 nM decitabine, 3 days): 325.966
- PLEKHF1 NM_024310 expression Mean (10 nM decitabine, 3 days): 367.904
- POLR1C NM_203290 expression Mean (10 nM decitabine, 3 days): 414.276 and 557.268
- PPA2 NM_006903 expression Mean (10 nM decitabine, 3 days): 606.161
- PPAN NM_002566 expression Mean (10 nM decitabine, 3 days): 287.832
- RBM22 NM_018047 expression Mean (10 nM decitabine, 3 days): 700.828
- RNMTL1 NM_018146 expression Mean (10 nM decitabine, 3 days): 432.796
- RPL6 NM_0010246 expression Mean (10 nM decitabine, 3 days): 1608.44
- RRM2 NM_001034 expression Mean (10 nM decitabine, 3 days): 799.058
- RSL1D1 NM_015659 expression Mean (10 nM decitabine, 3 days): 1458.69
- RUNX3 NM_004350 expression Mean (10 nM decitabine, 3 days): 191.132
- SERPINE1 NM_000602 expression Mean (10 nM decitabine, 3 days): 246.121
- SERTAD1 NM_013376 expression Mean (10 nM decitabine, 3 days): 291.604
- SFXN4 NM_213649 expression Mean (10 nM decitabine, 3 days): 481.671
- SIDT2 NM_0010404 expression Mean (10 nM decitabine, 3 days): 326.437
- SLC20A1 NM_005415 expression Mean (10 nM decitabine, 3 days): 1225.68
- SNAPC4 NM_003086 expression Mean (10 nM decitabine, 3 days): 599.752
- SOCS2 NM_003877 expression Mean (10 nM decitabine, 3 days): 182.936 and 244.438
- SOX15 NM_006942 expression Mean (10 nM decitabine, 3 days): 1693.21
- SPANXD NM_145665 expression Mean (10 nM decitabine, 3 days): 121.39
- SPRYD5 NM_032681 expression Mean (10 nM decitabine, 3 days): 293.721
- SQSTM1 NM_003900 expression Mean (10 nM decitabine, 3 days): 885.073
- SRRT NM_015908 expression Mean (10 nM decitabine, 3 days): 2745.27
- SUSD2 NM_019601 expression Mean (10 nM decitabine, 3 days): 1694.29
- TAGLN NM_003186 expression Mean (10 nM decitabine, 3 days): 489.068
- TNFRSF12A NM_016639 expression Mean (10 nM decitabine, 3 days): 296.715
- TNFRSF13B NM_012452 expression Mean (10 nM decitabine, 3 days): 214.796
- TNPO1 NM_153188 expression Mean (10 nM decitabine, 3 days): 240.816
- TPRG1L NM_182752 expression Mean (10 nM decitabine, 3 days): 762.223
- TRIM8 NM_030912 expression Mean (10 nM decitabine, 3 days): 529.909
- TTC4 NM_004623 expression Mean (10 nM decitabine, 3 days): 851.239
- UTP14A NM_006649 expression Mean (10 nM decitabine, 3 days): 736.541
- WBSCR22 NM_017528 expression Mean (10 nM decitabine, 3 days): 958.822
- XM_0011261 expression Mean (10 nM decitabine, 3 days): 824.879
- XM_0011281 expression Mean (10 nM decitabine, 3 days): 1290.15
- XR_015970 expression Mean (10 nM decitabine, 3 days): 527.915
- XR_016703 expression Mean (10 nM decitabine, 3 days): 4025.84
- XR_017241 expression Mean (10 nM decitabine, 3 days): 5144.11
- XR_017543 expression Mean (10 nM decitabine, 3 days): 410.447
- ZDHHC6 NM_022494 expression Mean (10 nM decitabine, 3 days): 344.248
- ZHX2 NM_014943 expression Mean (10 nM decitabine, 3 days): 196.281
- A4GALT (NM_017436) gene expression, Mean [1]: 279.705
- ABR (NM_001092) gene expression, Mean [1]: 376.941
- ACACA (NM_198836) gene expression, Mean [1]: 630.777
